Structures are written as SMILES.

Results on two molecules are retold here after ChEMBL document CHEMBL1145498, “A systematic interaction map of validated kinase inhibitors with Ser/Thr kinases” (Proc Natl Acad Sci U S A, 2007).

The target of assay [1] is TRAF2 and NCK-interacting protein kinase (Homo sapiens) (UniProt Q9UKE5).
The target in assay [2] is Calcium/calmodulin-dependent protein kinase type II subunit alpha (Homo sapiens) (UniProt Q9UQM7).
The target in assay [3] is Serine/threonine-protein kinase 26 (Homo sapiens) (UniProt Q9P289).
Assay [4] addresses Mitogen-activated protein kinase 3 (Homo sapiens, UniProt P27361).
In assay [5] the target is Cyclin-dependent kinase 6 (Homo sapiens) (UniProt Q00534).
Assay [6] concerns the target Tyrosine-protein kinase JAK1 (Homo sapiens) (UniProt P23458).
For assay [7], the target named is Serine/threonine-protein kinase 26 (Homo sapiens) (UniProt Q9P289). This is another data set of the same source.
The target in assay [8] is Serine/threonine-protein kinase PLK1 (Homo sapiens) (UniProt P53350).
Assay [9] addresses Serine/threonine-protein kinase Chk2 (Homo sapiens, UniProt O96017).
Assay [10] has as its target Calcium/calmodulin-dependent protein kinase type II subunit delta (Homo sapiens) (UniProt Q13557).
Assay [11] addresses T1, Serine/threonine-protein kinase 17A (Homo sapiens) (UniProt Q9UEE5).
T1 sequence (whole entry): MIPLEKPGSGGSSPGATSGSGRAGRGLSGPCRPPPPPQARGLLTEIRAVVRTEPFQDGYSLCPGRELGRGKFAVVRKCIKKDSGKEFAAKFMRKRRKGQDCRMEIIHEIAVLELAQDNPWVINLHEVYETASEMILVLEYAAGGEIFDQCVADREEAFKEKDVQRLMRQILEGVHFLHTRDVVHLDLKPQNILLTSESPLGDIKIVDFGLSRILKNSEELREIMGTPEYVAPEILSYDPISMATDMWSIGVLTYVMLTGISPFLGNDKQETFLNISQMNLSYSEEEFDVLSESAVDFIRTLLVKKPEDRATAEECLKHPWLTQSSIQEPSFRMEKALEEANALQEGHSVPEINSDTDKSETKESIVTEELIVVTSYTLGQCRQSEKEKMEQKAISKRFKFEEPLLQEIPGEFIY

Assay [12] has as its target Calcium/calmodulin-dependent protein kinase type II subunit beta (Homo sapiens) (UniProt Q13554).
Assay [13] addresses T2, Mitogen-activated protein kinase kinase kinase 5 (Homo sapiens) (UniProt Q99683).
T2 sequence (whole entry): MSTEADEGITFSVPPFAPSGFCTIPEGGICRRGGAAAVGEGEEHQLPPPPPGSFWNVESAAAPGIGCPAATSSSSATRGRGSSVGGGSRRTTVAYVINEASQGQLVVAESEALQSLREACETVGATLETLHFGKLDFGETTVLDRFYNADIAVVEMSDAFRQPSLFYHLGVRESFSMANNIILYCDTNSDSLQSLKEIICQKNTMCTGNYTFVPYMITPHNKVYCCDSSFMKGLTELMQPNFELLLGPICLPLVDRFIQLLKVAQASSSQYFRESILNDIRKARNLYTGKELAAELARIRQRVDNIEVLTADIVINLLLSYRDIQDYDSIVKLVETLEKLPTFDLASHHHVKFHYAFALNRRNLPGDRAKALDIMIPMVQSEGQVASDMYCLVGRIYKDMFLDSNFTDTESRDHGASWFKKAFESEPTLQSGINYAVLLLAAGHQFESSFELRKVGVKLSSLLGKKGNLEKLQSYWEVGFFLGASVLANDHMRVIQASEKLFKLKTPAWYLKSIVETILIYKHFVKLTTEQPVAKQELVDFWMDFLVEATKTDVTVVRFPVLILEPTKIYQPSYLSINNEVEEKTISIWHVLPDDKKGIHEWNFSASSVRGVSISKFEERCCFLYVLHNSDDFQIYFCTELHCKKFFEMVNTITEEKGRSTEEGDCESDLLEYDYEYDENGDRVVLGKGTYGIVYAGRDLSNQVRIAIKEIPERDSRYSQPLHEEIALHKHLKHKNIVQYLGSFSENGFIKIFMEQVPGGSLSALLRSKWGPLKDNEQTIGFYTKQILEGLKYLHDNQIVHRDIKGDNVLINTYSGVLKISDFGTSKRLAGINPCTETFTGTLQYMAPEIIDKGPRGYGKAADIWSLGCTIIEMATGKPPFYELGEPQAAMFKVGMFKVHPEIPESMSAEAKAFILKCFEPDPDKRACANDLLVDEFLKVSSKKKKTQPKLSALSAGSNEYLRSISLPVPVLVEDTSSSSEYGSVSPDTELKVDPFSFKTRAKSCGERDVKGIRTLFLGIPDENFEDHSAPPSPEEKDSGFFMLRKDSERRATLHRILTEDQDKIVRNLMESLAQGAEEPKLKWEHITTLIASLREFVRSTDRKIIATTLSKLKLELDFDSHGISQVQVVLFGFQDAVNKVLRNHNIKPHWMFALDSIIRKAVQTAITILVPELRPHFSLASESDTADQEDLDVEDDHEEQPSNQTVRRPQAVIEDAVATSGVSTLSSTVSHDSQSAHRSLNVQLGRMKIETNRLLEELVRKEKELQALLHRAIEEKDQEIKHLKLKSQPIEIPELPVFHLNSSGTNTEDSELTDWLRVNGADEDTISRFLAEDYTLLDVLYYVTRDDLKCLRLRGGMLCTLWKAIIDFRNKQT

The target in assay [14] is Glycogen synthase kinase-3 beta (Homo sapiens, UniProt P49841).
Assay [15] has as its target Serine/threonine-protein kinase Nek6 (Homo sapiens) (UniProt Q9HC98).
The target in assay [16] is Serine/threonine-protein kinase 10 (Homo sapiens) (UniProt O94804).
Assay [17] deals with Serine/threonine-protein kinase PAK 5 (Homo sapiens) (UniProt Q9P286).
Assay [18] deals with Calcium/calmodulin-dependent protein kinase type 1G (Homo sapiens) (UniProt Q96NX5).
The target of assay [19] is Serine/threonine-protein kinase pim-2 (Homo sapiens, UniProt Q9P1W9).
The target of assay [20] is Serine/threonine-protein kinase 16 (Homo sapiens) (UniProt O75716).
The target in assay [21] is Serine/threonine-protein kinase VRK2 (Homo sapiens) (UniProt Q86Y07).
Serine/threonine-protein kinase VRK2 (Homo sapiens), sequence (Q86Y07 whole entry): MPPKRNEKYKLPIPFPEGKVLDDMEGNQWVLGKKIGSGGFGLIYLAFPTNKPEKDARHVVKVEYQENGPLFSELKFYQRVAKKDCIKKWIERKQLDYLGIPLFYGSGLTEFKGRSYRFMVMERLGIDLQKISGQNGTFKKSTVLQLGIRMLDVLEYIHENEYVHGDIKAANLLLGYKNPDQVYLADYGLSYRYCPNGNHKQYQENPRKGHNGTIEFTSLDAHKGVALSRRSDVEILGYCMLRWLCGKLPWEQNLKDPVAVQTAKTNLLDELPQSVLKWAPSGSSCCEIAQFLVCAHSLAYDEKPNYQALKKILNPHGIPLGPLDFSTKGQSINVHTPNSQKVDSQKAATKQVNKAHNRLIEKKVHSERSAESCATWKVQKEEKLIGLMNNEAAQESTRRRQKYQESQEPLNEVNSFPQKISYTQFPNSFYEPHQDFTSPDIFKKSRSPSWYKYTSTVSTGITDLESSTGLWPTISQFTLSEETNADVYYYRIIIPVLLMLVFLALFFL

Serine/threonine-protein kinase 26 (Homo sapiens), sequence (Q9P289 2-416 limits assumed): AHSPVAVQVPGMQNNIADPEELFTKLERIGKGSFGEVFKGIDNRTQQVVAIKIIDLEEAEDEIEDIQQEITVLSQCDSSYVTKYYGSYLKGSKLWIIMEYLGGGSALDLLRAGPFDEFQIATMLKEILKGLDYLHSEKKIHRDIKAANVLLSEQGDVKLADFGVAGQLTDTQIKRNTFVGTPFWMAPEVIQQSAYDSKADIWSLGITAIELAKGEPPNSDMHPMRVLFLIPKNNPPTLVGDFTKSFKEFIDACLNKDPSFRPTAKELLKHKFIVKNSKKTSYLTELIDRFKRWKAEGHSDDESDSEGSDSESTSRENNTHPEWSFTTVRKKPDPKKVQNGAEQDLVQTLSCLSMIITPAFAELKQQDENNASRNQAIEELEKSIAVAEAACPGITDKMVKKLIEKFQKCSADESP
Calcium/calmodulin-dependent protein kinase type II subunit beta (Homo sapiens), sequence (Q13554 whole entry): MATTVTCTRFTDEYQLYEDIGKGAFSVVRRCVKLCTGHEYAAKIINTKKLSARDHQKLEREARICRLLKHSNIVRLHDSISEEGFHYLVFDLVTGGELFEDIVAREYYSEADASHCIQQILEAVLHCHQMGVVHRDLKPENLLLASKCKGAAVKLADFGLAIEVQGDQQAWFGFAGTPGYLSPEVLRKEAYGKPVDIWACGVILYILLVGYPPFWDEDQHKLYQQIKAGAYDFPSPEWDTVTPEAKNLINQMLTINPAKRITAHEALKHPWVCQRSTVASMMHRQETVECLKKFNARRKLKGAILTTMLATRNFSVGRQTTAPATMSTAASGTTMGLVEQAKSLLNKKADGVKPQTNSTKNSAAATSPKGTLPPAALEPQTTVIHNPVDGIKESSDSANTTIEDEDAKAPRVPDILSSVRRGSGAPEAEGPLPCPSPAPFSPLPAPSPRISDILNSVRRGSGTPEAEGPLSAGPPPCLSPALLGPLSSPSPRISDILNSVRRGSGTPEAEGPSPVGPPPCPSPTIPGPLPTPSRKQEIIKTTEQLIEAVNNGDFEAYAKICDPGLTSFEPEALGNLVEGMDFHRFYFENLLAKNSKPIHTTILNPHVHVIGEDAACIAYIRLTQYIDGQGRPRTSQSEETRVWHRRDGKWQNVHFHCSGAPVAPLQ
Mitogen-activated protein kinase 3, sequence (P27361 whole entry): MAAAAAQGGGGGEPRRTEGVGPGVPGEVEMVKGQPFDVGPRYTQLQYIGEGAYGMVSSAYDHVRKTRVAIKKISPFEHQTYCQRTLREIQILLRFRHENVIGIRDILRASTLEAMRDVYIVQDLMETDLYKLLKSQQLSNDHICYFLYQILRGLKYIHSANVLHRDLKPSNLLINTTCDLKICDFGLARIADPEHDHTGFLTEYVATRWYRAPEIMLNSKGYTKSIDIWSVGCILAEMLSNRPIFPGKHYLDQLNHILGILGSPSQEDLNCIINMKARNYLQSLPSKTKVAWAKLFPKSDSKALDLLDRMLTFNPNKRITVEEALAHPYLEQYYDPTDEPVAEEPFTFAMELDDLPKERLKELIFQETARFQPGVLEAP
Serine/threonine-protein kinase Chk2, sequence (O96017 whole entry): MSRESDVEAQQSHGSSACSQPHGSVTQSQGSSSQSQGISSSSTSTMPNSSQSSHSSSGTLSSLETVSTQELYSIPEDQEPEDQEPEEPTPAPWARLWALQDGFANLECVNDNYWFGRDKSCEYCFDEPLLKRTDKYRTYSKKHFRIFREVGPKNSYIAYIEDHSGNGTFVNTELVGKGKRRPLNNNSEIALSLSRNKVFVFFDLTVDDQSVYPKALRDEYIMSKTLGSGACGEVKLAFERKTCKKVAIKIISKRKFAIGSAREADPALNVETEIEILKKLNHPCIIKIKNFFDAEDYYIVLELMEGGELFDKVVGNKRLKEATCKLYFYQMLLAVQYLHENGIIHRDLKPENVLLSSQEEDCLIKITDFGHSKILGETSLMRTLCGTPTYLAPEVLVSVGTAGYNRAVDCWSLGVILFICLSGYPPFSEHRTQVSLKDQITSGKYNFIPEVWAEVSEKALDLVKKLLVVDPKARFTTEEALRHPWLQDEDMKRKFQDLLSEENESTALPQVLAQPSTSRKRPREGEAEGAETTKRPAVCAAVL
Serine/threonine-protein kinase Nek6 (Homo sapiens), sequence (Q9HC98 whole entry): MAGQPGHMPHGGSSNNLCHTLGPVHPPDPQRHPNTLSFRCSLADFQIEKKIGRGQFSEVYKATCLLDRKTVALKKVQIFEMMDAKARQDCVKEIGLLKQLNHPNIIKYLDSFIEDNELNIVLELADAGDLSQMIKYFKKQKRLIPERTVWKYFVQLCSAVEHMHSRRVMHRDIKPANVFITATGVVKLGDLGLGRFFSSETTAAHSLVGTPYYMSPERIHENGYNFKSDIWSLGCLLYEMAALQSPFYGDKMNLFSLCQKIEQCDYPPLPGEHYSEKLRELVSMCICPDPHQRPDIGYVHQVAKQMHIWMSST
Serine/threonine-protein kinase PAK 5 (Homo sapiens), sequence (Q9P286 whole entry, looked up): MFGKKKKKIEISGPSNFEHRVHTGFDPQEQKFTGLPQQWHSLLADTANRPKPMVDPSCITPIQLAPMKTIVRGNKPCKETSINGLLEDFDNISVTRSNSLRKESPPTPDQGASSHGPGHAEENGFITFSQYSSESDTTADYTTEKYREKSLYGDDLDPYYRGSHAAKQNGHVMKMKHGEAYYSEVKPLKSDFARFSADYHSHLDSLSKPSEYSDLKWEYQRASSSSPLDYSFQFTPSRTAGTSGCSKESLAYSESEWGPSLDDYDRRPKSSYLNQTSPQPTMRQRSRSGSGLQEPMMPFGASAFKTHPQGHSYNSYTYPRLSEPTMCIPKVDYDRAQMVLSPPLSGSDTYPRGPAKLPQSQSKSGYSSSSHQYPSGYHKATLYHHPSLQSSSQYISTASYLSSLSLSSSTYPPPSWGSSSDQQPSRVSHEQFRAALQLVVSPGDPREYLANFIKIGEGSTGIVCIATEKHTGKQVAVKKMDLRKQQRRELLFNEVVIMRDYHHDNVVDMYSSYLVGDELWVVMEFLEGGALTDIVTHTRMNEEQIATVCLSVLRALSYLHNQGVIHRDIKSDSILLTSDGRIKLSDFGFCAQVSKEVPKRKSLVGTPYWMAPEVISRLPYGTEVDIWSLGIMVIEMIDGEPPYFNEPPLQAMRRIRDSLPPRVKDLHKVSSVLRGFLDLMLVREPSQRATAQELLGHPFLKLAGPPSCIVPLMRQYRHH
Serine/threonine-protein kinase pim-2, sequence (Q9P1W9 whole entry, looked up): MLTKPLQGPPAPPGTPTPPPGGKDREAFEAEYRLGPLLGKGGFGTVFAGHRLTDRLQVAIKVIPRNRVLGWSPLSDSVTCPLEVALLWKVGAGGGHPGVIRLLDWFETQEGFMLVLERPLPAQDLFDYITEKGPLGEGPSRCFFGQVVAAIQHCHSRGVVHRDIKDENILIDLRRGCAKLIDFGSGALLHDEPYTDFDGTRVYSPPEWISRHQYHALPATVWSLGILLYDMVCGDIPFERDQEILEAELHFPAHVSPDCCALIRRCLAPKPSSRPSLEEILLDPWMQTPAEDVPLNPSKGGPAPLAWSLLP
Glycogen synthase kinase-3 beta, sequence (P49841 whole entry, looked up): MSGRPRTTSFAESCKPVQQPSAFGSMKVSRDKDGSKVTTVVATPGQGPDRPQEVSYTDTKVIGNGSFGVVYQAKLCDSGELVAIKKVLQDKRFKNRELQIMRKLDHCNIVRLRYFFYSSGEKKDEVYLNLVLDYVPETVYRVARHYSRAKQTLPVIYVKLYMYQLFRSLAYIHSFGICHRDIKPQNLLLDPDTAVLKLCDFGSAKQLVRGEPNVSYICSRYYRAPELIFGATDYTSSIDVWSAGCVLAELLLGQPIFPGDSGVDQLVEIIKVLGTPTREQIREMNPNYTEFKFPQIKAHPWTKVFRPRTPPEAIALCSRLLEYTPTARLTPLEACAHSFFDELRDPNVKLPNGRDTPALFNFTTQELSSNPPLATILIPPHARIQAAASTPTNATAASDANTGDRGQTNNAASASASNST
Serine/threonine-protein kinase PLK1 (Homo sapiens), sequence (P53350 whole entry): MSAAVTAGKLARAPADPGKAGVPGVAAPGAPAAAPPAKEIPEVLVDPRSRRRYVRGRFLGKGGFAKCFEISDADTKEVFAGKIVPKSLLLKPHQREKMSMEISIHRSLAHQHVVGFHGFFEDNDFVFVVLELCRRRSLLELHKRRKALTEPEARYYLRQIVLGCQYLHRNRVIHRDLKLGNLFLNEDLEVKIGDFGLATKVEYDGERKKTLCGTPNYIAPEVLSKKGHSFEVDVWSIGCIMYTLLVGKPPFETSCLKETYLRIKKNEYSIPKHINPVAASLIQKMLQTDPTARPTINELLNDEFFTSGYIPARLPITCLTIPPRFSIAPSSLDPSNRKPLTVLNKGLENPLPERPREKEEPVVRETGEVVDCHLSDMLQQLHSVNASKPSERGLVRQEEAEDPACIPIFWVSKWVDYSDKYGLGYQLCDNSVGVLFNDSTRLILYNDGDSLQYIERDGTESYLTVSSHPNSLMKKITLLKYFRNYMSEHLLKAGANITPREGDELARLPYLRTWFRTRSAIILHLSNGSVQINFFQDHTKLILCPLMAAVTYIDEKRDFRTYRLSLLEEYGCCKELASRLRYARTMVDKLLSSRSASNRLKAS

As to `O=C1Cc2c([nH]c3ccc([N+](=O)[O-])cc23)-c2ccccc2N1`, the shift in melting temperature (ΔTm) (usually the shift of the melting midpoint relative to a reference) turned out to be 6.1 °C in [1]; 0.6 °C in assay [2]; 2.5 °C in [3]; 1.1 °C in assay [4]; 1.4 °C in [5]; 1 °C in assay [6]. The ΔTm in assay [7] came out at 1.3 °C; in assay [8], 0.5 °C; in [9], 7.8 °C; in assay [10], 0 °C; in assay [11], 11.4 °C; in assay [12] it was 0.3 °C. Also, the shift in melting temperature (ΔTm) in assay [13] was found to be 0.9 °C; in assay [14] it was 11.9 °C; in [15] it was 0.8 °C; in [16] it was 2.3 °C; in [17], 3.8 °C; in assay [18], 0.5 °C. Also, the shift in melting temperature (ΔTm) in assay [19] turned out to be 1.5 °C; in assay [20] it was 1 °C; in [21] it was 0.3 °C.

On to `CC(C)c1cc(/C=C(\C#N)C(=O)NCCCc2ccccc2)cc(C(C)C)c1O`, for which the shift in melting temperature (ΔTm) in assay [1] is 0 °C; in [2], 0.6 °C; in assay [3], 0.3 °C; in [4] it was -0.1 °C; in [5], 0.3 °C; in assay [6] it was 0.1 °C. Further, the thermal shift (ΔTm) is 2.5 °C in assay [7]; 0.4 °C in assay [8]; -0.1 °C in assay [9]; 1 °C in [10]; 0.8 °C in [11]; 1.5 °C in assay [12]. The ΔTm is 0.3 °C in [13]; -1.2 °C in assay [14]; 0.9 °C in assay [15]; -0.1 °C in assay [16]; 0.7 °C in assay [17]; 2.8 °C in [18]. The ΔTm was 0.7 °C in [19], 0.5 °C in assay [20] and 0.7 °C in [21].
